For data set [1], the system named is human ovarian tumor xenografts (A-2780). In words: Cisplatin-resistant ovarian cancer xenograft model. The data set is classed as in vivo, mice. As to conditions: oral. The source says:
The efficacy of RX-5902 in human cancer xenograft mouse models is examined. Female nude mice (nu/nu, Harlan or CRL: NU(NCr)-Foxn1^nu, Charles River), 9-10 weeks old, with a body weight (BW) range of 15-30 g on day 1 of the study, are fed ad libitum water (reverse osmosis, 1 ppm C1), and NIH 31 Modified and Irradiated Lab Diet® consisting of 18.0% crude protein, 5.0% crude fat, and 5.0% crude fiber. The mice are housed on irradiated Enrich-o'Cobs™ Laboratory Animal Bedding in static microisolators on a 12-hour light cycle at 20-22° C. (68-72° F.) and 40-60% humidity. The study complies with the recommendations of the Guide for, Care and Use of Laboratory Animals with respect to restraint, husbandry, surgical procedures, feed and fluid regulation, and veterinary care.
Various human tumor cell lines (e.g., HCT116, HT29, H460, H69, Caki-1, CaSki, MiaPaca2, BxPC3 and Colo 205 cells [ATCC, Manassas, Va., USA]) are cultured according to ATCC's instruction. […]
The cells are harvested during exponential growth and re-suspended with phosphate buffered saline. Each test animal receives a subcutaneous (s.c.) injection of 5×10^6 tumor cells into the right flank and tumor growth is monitored as the average tumor size approaches the target range of 80-300 mm^3. […] Tumors and body weights are measured regularly until the study is terminated.
Tumors are measured in two dimensions using calipers, and volume is calculated using the formula: […]
Treatment efficacy is determined using data from Day 15. The MTV (n), the median tumor volume for the number of animals, n, on Day 15, is determined for each group. Percent tumor growth inhibition (% TGI) is defined as the difference between the MTV of the designated control group (vehicle administration) and the MTV of the drug-treated group, expressed as a percentage of the MTV of the control group: % TGI=[1−(MTVdrug treated/MTVcontrol)]×100 The data set for TGI analysis includes all animals in a group, except those that die due to treatment-related (TR) or non-treatment-related (NTR) causes. […]
Animals are monitored individually for tumor growth until Day 71. […]

The subject of another data set is MDA-MB-231 cells. In words: Cytotoxicity of RX-5902 after p68 knock-down with p68-siRNA. Format: cell-based, human. As to conditions: IC50 concentration of RX-5902.
For another data set, the target named is T1, phospho-p68 (Homo sapiens, UniProt P17844).
T1 construct: made in house
T1 sequence (P17844 whole entry): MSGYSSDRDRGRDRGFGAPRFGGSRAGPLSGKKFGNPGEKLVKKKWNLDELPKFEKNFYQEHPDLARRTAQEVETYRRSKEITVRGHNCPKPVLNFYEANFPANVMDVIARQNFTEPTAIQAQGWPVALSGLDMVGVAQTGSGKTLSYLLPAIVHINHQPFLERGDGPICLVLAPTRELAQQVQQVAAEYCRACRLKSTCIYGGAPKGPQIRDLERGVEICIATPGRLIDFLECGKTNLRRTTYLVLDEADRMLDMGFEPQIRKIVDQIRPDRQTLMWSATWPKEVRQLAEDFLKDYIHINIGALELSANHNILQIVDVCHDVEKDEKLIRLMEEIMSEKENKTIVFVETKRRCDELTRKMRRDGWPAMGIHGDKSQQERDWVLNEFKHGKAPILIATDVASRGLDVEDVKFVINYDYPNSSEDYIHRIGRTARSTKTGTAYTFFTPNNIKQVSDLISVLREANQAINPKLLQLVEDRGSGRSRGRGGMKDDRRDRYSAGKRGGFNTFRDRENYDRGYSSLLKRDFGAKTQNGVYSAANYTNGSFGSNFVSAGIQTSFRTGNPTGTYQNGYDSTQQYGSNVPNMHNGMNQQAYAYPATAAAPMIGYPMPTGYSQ
Nature of the data set: β-catenin dependent ATPase assay. The data set is classed as biochemical. How it is done:
ATPase activity was determined by measuring the released inorganic phosphate during ATP hydrolysis using a direct colorimetric assay (Shin et al., Cancer Res., 67:7572-7578 (2007); Yang et. al., Cell, 127:139-155 (2006)). A typical ATPase assay was carried out in 50 μl reaction volumes, containing 20 mM Tris-HCl pH 7.5, 200 mM NaCl, 1 mM MgCl2, 5 mM DTT, ˜1-2 of appropriate substrate, 4 mM ATP, and 10 μl of helicase. The ATPase reactions were incubated at 37° C. for 30 minutes. After incubation, 1 ml of malachitegreen-molybdenum reagent was added to the reaction mixture, and reactions were further incubated at room temperature for exactly 5 minutes. The absorption (A) at 630 nm was then measured. The concentrations of inorganic phosphate were determined by matching the A630nm in a standard curve of A630nm vs. known phosphate concentrations. The proteins, p68 or phospho-p68, used for this assay were prepared in-house similar to the procedure reported previously (Yang et al., Protein Expr. Purif., 35:327-333 (2004)). The percentage of inhibition by defining the ATPase activity of phospho-p68 without RX-5902 as zero percent inhibition was calculated and IC50 of RX-5902 was calculated by non-linear regression analysis using Kaledia Graph software program (Synergy Software, Reading, Pa.).
The experiment was repeated at lower concentrations of RX-5902 to calculate IC50.

Marks after values point to notes of the source that are not given here.

The term IC50 denotes the concentration that gives 50% inhibition. Turning to `COc1cc(OC)cc(N2CCN(C(=O)Nc3nc4cc(F)ccc4nc3OC)CC2)c1` [RX-5902, 4-(3,5-dimethoxyphenyl)-N-(7-fluoro-3-methoxyquinoxalin-2-yl)piperazine-1-carboxamide], the TGI % in data set [1] (160 mg/kg QWK) is 43%*; in data set [1] (320 mg/kg QWK) it was 43%*; in data set [1] (600 mg/kg QWK) it was 75%*. Also, the “cytotoxic effect in p68-siRNA-transfected cells” value in the data set with MDA-MB-231 cells is “protected MDA-MB-231 cells from the cytotoxic effects”. In addition, the “β-catenin dependent ATPase activity” value on phospho-p68 (0.2 μM) is on record as “largely diminished”. In addition, the IC50 on phospho-p68 (read-out: IC50 for the inhibition of β-catenin dependent ATPase activity) amounted to 61 nM.

The values above are taken from US9969698B2, “Quinoxalinyl-piperazinamide methods of use” (REXAHN PHARMACEUTICALS, INC., priority 2015, dated 2018).
